Common to all, as to assay: NCI tumour cell line growth inhibition, 48 h
Test [1] has as its system A549 NSCLC.
For test [2], the system named is ACHN renal.
Test [3] concerns COLO 205 colon.
Test [4] concerns HCC-2998 colon.
Test [5] relates to HOP-92 NSCLC.
For test [6], the system named is HS 578T breast.
Test [7] relates to KM12 colon.
Test [8] has as its system PC-3 prostate.
In test [9] the test system is SNB-19 CNS.
The subject of test [10] is SR leukemia.

SMILES strings stand for the structures.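 How tested: cells in 96-well plates exposed to compound for 48 hours at five concentrations. GI50 is the concentration that inhibits growth by half. TGI denotes the concentration required for complete inhibition of growth.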 Where only a bound is given, the exact number is not on record here.

As to `Cn1c(O)c(C=Nc2ccc(Cl)cc2Cl)c(=O)n(C)c1=O`, the TGI in test [1], in [2], in [3], in test [4], in test [5] and in test [6] was more than 100 µM throughout. For the same molecule, the TGI in test [7], in [8], in test [9] and in test [10] was more than 100 µM throughout.

As for `FC(F)(F)C1(c2ccccc2)SCc2nc3ccccc3n21` (stereo not drawn), the TGI in test [1], in test [2], in [3], in test [4], in test [5] and in test [6] was more than 100 µM in each case. Besides, the TGI in test [7], in test [8], in test [9] and in [10] was more than 100 µM each time.

As to `CC(C)C1=CC23CCC4C(C)(C(=O)O)CCCC4(C)C2CC1C1C(=O)N(c2cccc(N4C(=O)C5C6CC7C8(C)CCCC(C)(C(=O)O)C8CCC7(C=C6C(C)C)C5C4=O)c2)C(=O)C13` (stereo not drawn), the TGI was more than 100 µM in test [1]; 26.1 µM in [2]; 23.8 µM in [3]; 20.3 µM in [4]; 39.6 µM in test [5]; 24.6 µM in test [6]. Also, the TGI in test [7] is 9.7 µM; in test [8], 17.9 µM; in [10] it was 45 µM.

Take `O=C1NC(N2CCCCC2)=N/C1=C\c1ccccc1`: the TGI in test [1], in test [2], in [3], in test [4], in [5] and in test [6] was more than 100 µM throughout. Also, the TGI in [7], in test [8], in [9] and in [10] was more than 100 µM each time.

For `COc1ccc(Br)c(C=Nc2cccc3cc(OC)c(OC)cc23)c1`, the TGI in test [1] was more than 100 µM; in test [2], more than 73.8 µM; in [3], more than 100 µM; in test [4], more than 100 µM; in test [5], 79.5 µM; in test [6], 57.1 µM. The TGI was more than 95.7 µM in test [7], more than 100 µM in test [8], more than 100 µM in test [9] and 11.6 µM in test [10].

`COC(=O)/C=C/c1cnc2c(c1)oc(=O)n2C`: the TGI in test [1], in test [2], in [3], in test [4], in test [5] and in test [6] was more than 100 µM each time. Further, the TGI in test [7], in [8], in [9] and in test [10] was more than 100 µM in each case.

With `NS(=O)(=O)c1ccc(N2C(=O)C(=O)N(c3ccccc3)C2=S)cc1`, the TGI is more than 100 µM in [1]; more than 100 µM in test [2]; more than 100 µM in test [3]; more than 100 µM in [4]; 95.9 µM in test [5]; more than 100 µM in test [6]. Further, the TGI in test [7], in [8], in [9] and in test [10] was more than 100 µM throughout.

Take `COc1ccc2c(c1)C(=O)[C@@](Nc1ccc(C=O)cc1)(OC)[C@@](OC)(c1ccc([N+](=O)[O-])cc1)O2`: the TGI in test [1], in test [2], in test [3], in test [4], in test [6] and in test [7] was more than 10 µM each time. For the same molecule, the TGI in test [8], in [9] and in [10] was more than 10 µM throughout.

Take `CCCCCCCCCC[N+](C)(C)C`: the GI50 in [1] is 2.52 µM; in [2], 2.39 µM; in test [3], 1.28 µM; in test [4], 1.58 µM; in [5], 0.677 µM; in test [6], 2.22 µM. Moreover, the GI50 in [8] was 0.978 µM; in test [10] it was 1.12 µM. Further, the TGI in test [1] was determined as 8.43 µM; in test [2], 12.5 µM; in [3], 2.59 µM; in [4] it was 3.53 µM; in [5], 4.6 µM; in test [6], 6.38 µM. Besides, the TGI in test [8] turned out to be 5.16 µM; in [10], 3.43 µM.

Take `CN(C)c1c(C2CC(O)C(CO)O2)c(=O)c1=O` (stereo not drawn): the TGI in test [1], in test [2], in test [4], in test [5], in [6] and in test [7] was more than 100 µM each time. Also, the TGI in test [8], in test [9] and in [10] was more than 100 µM throughout.

For the molecule `CCCCCCC(=O)c1ccc2ccccc2c1O`, the TGI in test [2], in test [3], in test [4], in [5], in test [6] and in [7] was more than 100 µM throughout. Also, the TGI in test [8], in [9] and in test [10] was more than 100 µM in each case.

Take `CCOc1cc(/C=C2\N=C(c3ccccc3)N(c3nc4ccccc4s3)C2=O)ccc1O`: the TGI in [2] was more than 100 µM; in test [4] it was 97.3 µM; in test [5] it was more than 100 µM; in [6], 85.6 µM; in [7], more than 100 µM; in [8], 79.4 µM. For the same molecule, the TGI in test [10] was more than 100 µM.

Consider `C=C(C1=CC(=O)C(C)(C)O1)[C@@H]1CC=C([C@@H]2CC[C@H]3[C@@]2(C)CC[C@H]2C(C)(C)C(=O)[C@H](OC(=O)CC(C)(O)CC(=O)O)C[C@]32C)[C@H](O)O1` (stereo partly drawn), for which the TGI is 40.3 µM in [1]; 25.4 µM in test [2]; 24.5 µM in [3]; 24.7 µM in [5]; 66.7 µM in [6]; 29.7 µM in [7]. The TGI in test [8] is 30.2 µM; in test [9], more than 75 µM; in test [10], 49.2 µM.

Values taken from PubChem BioAssay (NCI).
